Paper PMC10120310 (Cell Insight, 2022)

Experiments:
[1] = system: oseltamivir-resistant strain (H1N1, H274Y); format: cell-based, H1N1 influenza virus (H274Y)
[2] = system: oseltamivir-resistant strain (H1N1, H274Y); format: cell-based, H1N1 influenza virus (H274Y); remark: listed apart in the source

CCOC(=O)C1=C[C@@H](OC(CC)CC)[C@H](NC(C)=O)[C@@H](N)C1 [OSP, oseltamivir phosphate]
viral NP protein level of the resistant strain [1]: no antiviral activity
viral NP mRNA level of the resistant strain [2]: no antiviral activity
